These results are taken from ChEMBL document CHEMBL1136244, “Synthesis and structure-activity relationships of 1-arylmethyl-3-(2-aminopropyl)-5-aryl-6-methyluracils as potent GnRH receptor antagonists” (Bioorg Med Chem Lett, 2003).

In assay [1] the target is T1, Gonadotropin-releasing hormone receptor (Homo sapiens, UniProt P30968).
T1 sequence (P30968 whole entry): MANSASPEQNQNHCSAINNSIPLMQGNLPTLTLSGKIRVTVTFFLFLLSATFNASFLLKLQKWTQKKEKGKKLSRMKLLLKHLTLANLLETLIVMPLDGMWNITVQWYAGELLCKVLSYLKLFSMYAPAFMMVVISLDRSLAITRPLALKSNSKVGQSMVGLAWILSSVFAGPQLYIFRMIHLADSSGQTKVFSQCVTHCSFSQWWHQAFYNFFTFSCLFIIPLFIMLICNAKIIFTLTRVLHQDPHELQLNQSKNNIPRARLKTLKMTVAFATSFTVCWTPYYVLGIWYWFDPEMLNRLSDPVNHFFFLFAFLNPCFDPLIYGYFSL
Kind of assay: Ability to inhibit des-Gly10[125I]Tyr5,DLeu6,NMeLeu7, Pro9-NEt]-GnRH radioligand binding to the cloned human gonadotropin-releasing hormone receptor stably expressed in HEK293 cells. It is filed as cell-based.

A short description of assay [2]: Inhibition of GnRH-stimulated [Ca2+] influx. It counts as functional.

Consider `COc1cccc(-c2c(C)n(Cc3c(F)cccc3F)c(=O)n(C[C@H](C)N(C)CCc3ccccn3)c2=O)c1`, for which the Ki in assay [1] was 890 nM.
The same measure, in the same setting: the result for `COc1cccc(-c2c(C)n(Cc3c(F)cccc3F)c(=O)n(C[C@H](C)N(C)Cc3ccccc3)c2=O)c1` reads 250 nM.
On the same count and under the same terms, in the case of `COc1cccc(-c2c(C)n(Cc3c(F)cccc3F)c(=O)n(CC(C)N(C)CCc3ccccn3)c2=O)c1` (centres undefined) it was 12 nM.
In assay [2], `COc1cccc(-c2c(C)n(Cc3c(F)cccc3F)c(=O)n(C[C@@H](C)N(C)Cc3ccccn3)c2=O)c1` showed an IC50 of 2.5 nM.
In the case of `COc1cccc(-c2c(C)n(Cc3c(F)cccc3F)c(=O)n(CCN(C)Cc3ccccn3)c2=O)c1`, in assay [1], the Ki came to 96 nM.
Still for that read-out and setting: in the case of `COc1cccc(-c2c(C)n(Cc3c(F)cccc3F)c(=O)n(CC(C)NCc3ccccn3)c2=O)c1` (centres undefined) it was 53 nM; in that of `COc1cccc(-c2c(C)n(Cc3c(F)cccc3F)c(=O)n(C[C@@H](C)N(C)Cc3ccccc3)c2=O)c1`, 330 nM.
Take `COc1cccc(-c2c(C)n(Cc3c(F)cccc3F)c(=O)n(CC(C)N(C)CCCOCC(C)C)c2=O)c1` (centres undefined): in assay [1], the affinity, expressed as Ki, was 240 nM.
The same measure, in the same setting: the result for `COc1cccc(-c2c(C)n(Cc3c(F)cccc3F)c(=O)n(C[C@@H](C)NCCc3ccccn3)c2=O)c1` reads 79 nM.
On to `COc1cccc(-c2c(C)n(Cc3c(F)cccc3F)c(=O)n(C[C@@H](C)NCc3ccccc3)c2=O)c1`, for which, in assay [1], the inhibitory constant (Ki) amounted to 130 nM.
On the same count and under the same terms, in the case of `COc1cccc(-c2c(C)n(Cc3c(F)cccc3F)c(=O)n(C[C@H](C)NCc3ccccn3)c2=O)c1` it was 460 nM.
On the same count and under the same terms, in the case of `COc1cccc(-c2c(C)n(Cc3c(F)cccc3F)c(=O)n(C[C@@H](C)NCc3ccccn3)c2=O)c1` it was 15 nM; in that of `COc1cccc(-c2c(C)n(Cc3c(F)cccc3F)c(=O)n(C[C@H](C)NCc3ccccc3)c2=O)c1`, 140 nM; in that of `COc1cccc(-c2c(C)n(Cc3c(F)cccc3F)c(=O)n(C[C@H](C)NCCc3ccccn3)c2=O)c1`, 780 nM.
The same measure, in the same setting: the result for `COc1cccc(-c2c(C)n(Cc3c(F)cccc3F)c(=O)n(CC(C)NCc3ccccc3)c2=O)c1` (centres undefined) reads 280 nM; that for `COc1cccc(-c2c(C)n(Cc3c(F)cccc3F)c(=O)n(C[C@@H](C)N(C)CCc3ccccn3)c2=O)c1`, 5.2 nM; that for `COc1cccc(-c2c(C)n(Cc3c(F)cccc3F)c(=O)n(C[C@H](C)N)c2=O)c1`, 18000 nM.
In turn, `COc1cccc(-c2c(C)n(Cc3c(F)cccc3F)c(=O)n(C[C@H]3CCCN3Cc3ccccn3)c2=O)c1` showed an inhibitory constant (Ki) in assay [1] of 32 nM.
For `COc1cccc(-c2c(C)n(Cc3c(F)cccc3F)c(=O)n(CC(C)NCCCOCC(C)C)c2=O)c1` (centres undefined), the Ki in assay [1] is 81 nM.
`COc1cccc(-c2c(C)n(Cc3c(F)cccc3F)c(=O)n(CCNCc3ccccn3)c2=O)c1` registered a Ki in assay [1] of 550 nM.
On the same count and under the same terms, in the case of `COc1cccc(-c2c(C)n(Cc3c(F)cccc3F)c(=O)n(C[C@@H](C)N)c2=O)c1` it was 2500 nM; in that of `COc1cccc(-c2c(C)n(Cc3c(F)cccc3F)c(=O)n(CC(C)NCCc3ccccn3)c2=O)c1` (centres undefined), 170 nM.
On the same count and under the same terms, the result for `COc1cccc(-c2c(C)n(Cc3c(F)cccc3F)c(=O)n(C[C@@H]3CCCN3Cc3ccccn3)c2=O)c1` reads 210 nM; that for `COc1cccc(-c2c(C)n(Cc3c(F)cccc3F)c(=O)n(CC(C)N(C)Cc3ccccc3)c2=O)c1` (centres undefined), 310 nM.
